Data as given in patent EP4813403A1, “USE OF GLP-1R/GIPR DOUBLE-TARGET AGONIST IN PREPARING ANIMAL DRUG” (Hangzhou Zhongmeihuadong Pharmaceutical Co., Ltd., priority 2023, dated 2025).

What was measured:
human GIP Receptor = target: T1, human GIP Receptor (Homo sapiens, UniProt P48546); experiment: In vitro binding activity to human GIP receptor ([125I]GIP displacement, crude cell membranes); conditions: ratio of the Ki value of the endogenous ligand to the Ki value of the test compound; larger ratio = stronger binding
T1 construct: expressed in transfected cells
T1 sequence (P48546 22-466): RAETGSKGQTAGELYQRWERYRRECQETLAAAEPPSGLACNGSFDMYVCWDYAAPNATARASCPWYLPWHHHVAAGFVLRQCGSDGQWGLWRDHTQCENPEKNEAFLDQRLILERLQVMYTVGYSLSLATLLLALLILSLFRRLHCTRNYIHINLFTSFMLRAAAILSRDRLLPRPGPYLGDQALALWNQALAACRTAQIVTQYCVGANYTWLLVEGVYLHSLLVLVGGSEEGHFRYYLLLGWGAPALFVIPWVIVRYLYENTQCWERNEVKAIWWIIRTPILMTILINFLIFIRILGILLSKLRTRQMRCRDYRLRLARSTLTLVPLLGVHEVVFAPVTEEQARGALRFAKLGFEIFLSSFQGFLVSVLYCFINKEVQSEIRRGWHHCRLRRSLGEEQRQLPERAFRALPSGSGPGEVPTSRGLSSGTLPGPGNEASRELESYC
Description: (§1) 89 µL of membrane dissolved in binding buffer (50 mM Hepes, pH 7.4, 5 mM MgCl2 , 5 mM EDTA, 0.005% TWEEN, 0.005% HSA) was transferred to a 96-well test plate (5 µg/well). The compound was serially diluted in DMSO, and then, 1 µL of the diluted compound or 100% DMSO was added to the test plate containing the membrane solution. 10 µL of [^125I] […] The test plate was left at room temperature for 90 minutes. The membrane complexes were harvested into a GF/B plate pre-coated with 0.5% PEI by using a Cell Harvester, and washed for 3 times with 500 µL of pre-cooled elution buffer (50 mM Hepes, pH 7.4, 500 mM NaCl) at 4°C. After drying at 37°C for 2 hours, 50 µL of scintillation fluid was added to each well. The plate was read with a MicroBeta2 scintillation counter after sealing and settling for at least 1 hour so as to determine the membrane bound radioligand level.
hGIP and the compound of the present invention were dissolved in DMSO and stored at -80°C. 98 µL of membrane dissolved in binding buffer (50 mM HEPES pH 7.4, 5 mM MgCl2, 1 mM CaCl2, 0.1% BSA, 0.005% Tween-20) was transferred to a 96-well test plate (15 µg/well). The compound was serially diluted in DMSO, and then, 2 µL of the diluted compounds or 100% DMSO was added to the test plate containing the membrane solution. […] The test plate was left at room temperature for 90 minutes. The membrane complexes were harvested into a GF/B plate pre-coated with 0.5% PEI by using a Cell Harvester, and washed for 3 times with 500 µL of pre-cooled elution buffer (50 mM Tris-HCl pH 7.4, 125 mM NaCl) at 4°C. After drying at 37°C for 2 hours, 50 µL of scintillation fluid was added to each well. The plate was read with a MicroBeta2 scintillation counter after sealing and settling for at least 1 hour so as to determine the membrane bound radioligand level.
The IC50 concentration was converted to Ki (Ki was the inhibition constant) using the Cheng-Prusoff equation. Table 1. Receptor Binding Affinity, Ki Ratio

[1] = Pharmacokinetics following single administration in SD rats; conditions: male, Sprague-Dawley, rat, in vivo, sc
Description: The compound was administrated to male SD rats (230-268 g, n=3) at a dose of 50.0 nmol/kg (s.c.) or 25.0 nmol/kg (i.v.). […] 30.0 μL of thawed plasma sample was taken. 150 μL of acetonitrile solution (containing 5 ng·mL^-1 Verapamil , 50 ng·mL^-1 Glibenclamide, 200 ng·mL^-1 Tolbutamide and 200 ng·mL^-1 Diclofenac) were added to precipitate protein. The mixture was vortexed for 5 minutes, and centrifuged at 3700 rpm for 8 minutes. 70.0 μL of the supernatant was taken, into which 70.0 μL of 0.5% aqueous formic acid solution was added. The mixture was vortexed for 5 minutes. 15 μL of the mixture solution was sampled and injected into the LC-MS/MS to determine the drug concentration in plasma. 20.0 μL of thawed plasma sample was taken. 60 μL of acetonitrile solution (containing 5 ng·mL^-1 Verapamil, 50 ng·mL^-1 Glibenclamide, 200 ng·mL^-1 Tolbutamide and 200 ng·mL^-1 Diclofenac) were added to precipitate protein. […] The mixture was vortexed for 10 minutes. 10.0 μL of the mixture solution was sampled and injected into the LC-MS/MS to determine the drug concentration in plasma. 30.0 μL of thawed plasma sample was taken. 150 μL of acetonitrile solution (containing 5 ng·mL^-1 Verapamil, 50 ng·mL^-1 Glibenclamide, 200 ng·mL^-1 Tolbutamide and 200 ng·mL^-1 Diclofenac) were added to precipitate protein. The mixture was vortexed for 5 minutes, and centrifuged at 3700 rpm for 8 minutes. 70.0 μL of the supernatant was taken, into which 70.0 μL of 0.5% aqueous formic acid solution was added. The mixture was vortexed for 5 minutes. 10.0 μL of the mixture solution was sampled and injected into the LC-MS/MS to determine the drug concentration in plasma. […] Table 5 Pharmacokinetic Parameters after Subcutaneous Injection of Different Polypeptide Compounds to Rats

db/db mice = experiment: Pharmacodynamic effects in db/db mice, single subcutaneous administration (blood glucose); type: in vivo; conditions: single s.c. 10 nmol/kg
Description: In this study, 8-9 week old male db/db mice were used. The db/db mice were placed in an individual ventilated cage (IVC) facility with a controlled temperature (20-26°C) and humidity (40-70%) and a controlled 12h:12 h light-dark cycle. The mice can receive food and water ad libitum. Blood was sampled at the tail tip, and the random base blood glucose was measured by a Roche blood glucose meter. The mice were randomly divided into groups according to the random initial fasting blood glucose and initial body weight (n=6/group), and each group had similar body weight and blood glucose.
After a single subcutaneous administration, the random base blood glucoses were recorded at the set time point (0 to 120 hours, the recording of the random base blood glucose was stopped until there was no difference between the random base blood glucose of the compound and that of the vehicle group), and the daily body weight and food intake were also recorded. The data results were statistically analyzed using GraphPad Prism8, and the statistical differences among the groups were analyzed following a T-Test. Significant differences were identified at p<0.05.
Hypoglycemic Duration: the longest time during which the random base blood glucose of the compound has a significant difference (p<0.05) vs. the vehicle group. Table 13. Hypoglycemic Duration of the Compounds

human GLP-1R = human GLP-1R (Homo sapiens, UniProt P43220); experiment: In vitro binding activity to human GLP-1 receptor ([125I]GLP-1 displacement, crude cell membranes); design: expressed in transfected cells; conditions: ratio of the Ki value of the endogenous ligand to the Ki value of the test compound; larger ratio = stronger binding
Description: as §1
The IC50 concentration was converted to Ki (Ki was the inhibition constant) using the Cheng-Prusoff equation.

[2] = Group 1, longest time with p<0.05 vs. vehicle

Sequence of human GLP-1R (P43220 24-463): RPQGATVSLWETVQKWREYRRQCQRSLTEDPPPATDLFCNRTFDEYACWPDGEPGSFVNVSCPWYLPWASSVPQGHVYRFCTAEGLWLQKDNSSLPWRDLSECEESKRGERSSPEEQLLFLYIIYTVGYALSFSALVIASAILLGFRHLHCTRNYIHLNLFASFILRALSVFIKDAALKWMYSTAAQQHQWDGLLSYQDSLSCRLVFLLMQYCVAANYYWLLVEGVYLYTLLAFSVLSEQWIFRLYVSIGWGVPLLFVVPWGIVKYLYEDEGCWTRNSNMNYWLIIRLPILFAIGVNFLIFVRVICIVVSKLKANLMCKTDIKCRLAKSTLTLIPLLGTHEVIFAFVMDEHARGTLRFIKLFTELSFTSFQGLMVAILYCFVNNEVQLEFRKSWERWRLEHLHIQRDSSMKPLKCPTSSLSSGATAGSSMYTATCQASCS

Compound: CC[C@H](C)[C@H](NC(=O)C(C)(C)NC(=O)[C@H](Cc1ccc(O)cc1)NC(=O)[C@H](CC(=O)O)NC(=O)[C@H](CO)NC(=O)[C@@H](NC(=O)C(C)(Cc1ccccc1)NC(=O)[C@@H](NC(=O)CNC(=O)[C@H](CCC(=O)O)NC(=O)C(C)(C)NC(=O)[C@@H](N)Cc1ccc(O)cc1)[C@@H](C)O)[C@@H](C)O)C(=O)NC(C)(C)C(=O)N[C@@H](CC(C)C)C(=O)N[C@@H](CC(=O)O)C(=O)N[C@@H](CCCCN)C(=O)N[C@@H](CCC(N)=O)C(=O)N[C@@H](C)C(=O)N[C@@H](CCC(N)=O)C(=O)N[C@@H](C)C(=O)N[C@@H](CCC(=O)O)C(=O)N[C@@H](Cc1ccccc1)C(=O)N[C@H](C(=O)N[C@@H](CCCCN)C(=O)N[C@@H](Cc1c[nH]c2ccccc12)C(=O)N[C@@H](CC(C)C)C(=O)N[C@@H](CC(C)C)C(=O)N[C@@H](CCCCNC(=O)COCCOCCNC(=O)COCCOCCNC(=O)COCCOCCNC(=O)CC[C@H](NC(=O)CCCCCCCCCCCCCCCCC(=O)O)C(=O)O)C(=O)NCC(=O)NCC(=O)N1CCC[C@H]1C(=O)N[C@@H](CO)C(=O)N[C@@H](CO)C(=O)NCC(=O)N[C@@H](C)C(=O)N1CCC[C@H]1C(=O)N1CCC[C@H]1C(=O)N1CCC[C@H]1C(=O)N[C@@H](CO)C(=O)N[C@@H](CCCCN)C(N)=O)C(C)C (stereo partly shown) [Compound P019]
- GIPR Ki ratio (human GIP Receptor): 0.09
- Tmax [1]: 13.3 ± 9.24 h
- half-life [1]: 10.9 ± 1.92 h
- inhibition of the blood glucose AUC, times of that of P001 (db/db mice): 2.2 times
- Hypoglycemic Duration (db/db mice; [2]): 56 h
- GLP-1R Ki ratio (human GLP-1R): 0.93

Compound: CC[C@H](C)[C@H](NC(=O)C(C)(C)NC(=O)[C@H](Cc1ccc(O)cc1)NC(=O)[C@H](CC(=O)O)NC(=O)[C@H](CO)NC(=O)[C@@H](NC(=O)C(C)(Cc1ccccc1)NC(=O)[C@@H](NC(=O)CNC(=O)[C@H](CCC(=O)O)NC(=O)C(C)(C)NC(=O)[C@@H](N)Cc1ccc(O)cc1)[C@@H](C)O)[C@@H](C)O)C(=O)NC(C)(C)C(=O)N[C@@H](CC(C)C)C(=O)N[C@@H](CC(=O)O)C(=O)N[C@@H](CCCCN)C(=O)N[C@@H](CCC(N)=O)C(=O)N[C@@H](C)C(=O)N[C@@H](CCC(N)=O)C(=O)N[C@@H](C)C(=O)N[C@@H](CCC(=O)O)C(=O)N[C@@H](Cc1ccccc1)C(=O)N[C@H](C(=O)N[C@@H](CCCCN)C(=O)N[C@@H](Cc1c[nH]c2ccccc12)C(=O)N[C@@H](CC(C)C)C(=O)N[C@@H](CC(C)C)C(=O)N[C@@H](CCCCNC(=O)COCCOCCNC(=O)COCCOCCNC(=O)CC[C@H](NC(=O)CCCCCCCCCCCCCCCCC(=O)O)C(=O)O)C(=O)NCC(=O)NCC(=O)N1CCC[C@H]1C(=O)N[C@@H](CO)C(=O)N[C@@H](CO)C(=O)NCC(=O)N[C@@H](C)C(=O)N1CCC[C@H]1C(=O)N1CCC[C@H]1C(=O)N1CCC[C@H]1C(=O)N[C@@H](CO)C(=O)N[C@@H](CCCCN)C(N)=O)C(C)C (stereo partly shown) [Compound P008]
- Tmax [1]: 13.3 ± 9.24 h
- half-life [1]: 18.7 ± 4.82 h
- hypoglycemic duration longer than that of Tirzepatide (db/db mice): more than 16 hours
- inhibition of the blood glucose AUC, times of that of P001 (db/db mice): 2.3 times
- Hypoglycemic Duration (db/db mice; [2]): 72 h

Compound: CC[C@H](C)[C@H](NC(=O)C(C)(C)NC(=O)[C@H](Cc1ccc(O)cc1)NC(=O)[C@H](CC(=O)O)NC(=O)[C@H](CO)NC(=O)[C@@H](NC(=O)C(C)(Cc1ccccc1)NC(=O)[C@@H](NC(=O)CNC(=O)[C@H](CCC(=O)O)NC(=O)C(C)(C)NC(=O)[C@@H](N)Cc1ccc(O)cc1)[C@@H](C)O)[C@@H](C)O)C(=O)NC(C)(C)C(=O)N[C@@H](CC(C)C)C(=O)N[C@@H](CC(=O)O)C(=O)N[C@@H](CCCCN)C(=O)N[C@@H](CCC(N)=O)C(=O)N[C@@H](C)C(=O)N[C@@H](CCC(N)=O)C(=O)N[C@@H](C)C(=O)N[C@@H](CCC(=O)O)C(=O)N[C@@H](Cc1ccccc1)C(=O)N[C@H](C(=O)N[C@@H](CCCCNC(=O)COCCOCCNC(=O)COCCOCCNC(=O)CC[C@H](NC(=O)CC[C@H](NC(=O)CC[C@H](NC(=O)CCCCCCCCCCCCCCCCC(=O)O)C(=O)O)C(=O)O)C(=O)O)C(=O)N[C@@H](Cc1c[nH]c2ccccc12)C(=O)N[C@@H](CC(C)C)C(=O)N[C@@H](CC(C)C)C(=O)N[C@@H](CCCCN)C(=O)NCC(=O)NCC(=O)N1CCC[C@H]1C(=O)N[C@@H](CO)C(=O)N[C@@H](CO)C(=O)NCC(=O)N[C@@H](C)C(=O)N1CCC[C@H]1C(=O)N1CCC[C@H]1C(=O)N1CCC[C@H]1C(=O)N[C@@H](CO)C(=O)N[C@@H](CCCCN)C(N)=O)C(C)C (stereo partly shown) [Compound P015]
- Tmax [1]: 24 h
- half-life [1]: 16.1 ± 1.21 h
- Hypoglycemic Duration (db/db mice; Group 2, longest time with p<0.05 vs. vehicle): 32 h
- GLP-1R Ki ratio (human GLP-1R): 0.17

Compound: CC[C@H](C)[C@H](NC(=O)C(C)(C)NC(=O)[C@H](Cc1ccc(O)cc1)NC(=O)[C@H](CC(=O)O)NC(=O)[C@H](CO)NC(=O)[C@@H](NC(=O)C(C)(Cc1ccccc1)NC(=O)[C@@H](NC(=O)CNC(=O)[C@H](CCC(=O)O)NC(=O)C(C)(C)NC(=O)[C@@H](N)Cc1ccc(O)cc1)[C@@H](C)O)[C@@H](C)O)C(=O)NC(C)(C)C(=O)N[C@@H](CC(C)C)C(=O)N[C@@H](CC(=O)O)C(=O)N[C@@H](CCCCN)C(=O)N[C@@H](CCC(N)=O)C(=O)N[C@@H](C)C(=O)N[C@@H](CCC(N)=O)C(=O)N[C@@H](C)C(=O)N[C@@H](CCC(=O)O)C(=O)N[C@@H](Cc1ccccc1)C(=O)N[C@H](C(=O)N[C@@H](CCCCNC(=O)COCCOCCNC(=O)COCCOCCNC(=O)CC[C@H](NC(=O)CCCCCCCCCCCCCCCCC(=O)O)C(=O)O)C(=O)N[C@@H](Cc1c[nH]c2ccccc12)C(=O)N[C@@H](CC(C)C)C(=O)N[C@@H](CC(C)C)C(=O)N[C@@H](CCCCN)C(=O)NCC(=O)NCC(=O)N1CCC[C@H]1C(=O)N[C@@H](CO)C(=O)N[C@@H](CO)C(=O)NCC(=O)N[C@@H](C)C(=O)N1CCC[C@H]1C(=O)N1CCC[C@H]1C(=O)N1CCC[C@H]1C(=O)N[C@@H](CO)C(=O)N[C@@H](CCCCN)C(N)=O)C(C)C (stereo partly shown) [Compound P007]
- Tmax [1]: 7.33 ± 1.15 h
- half-life [1]: 15 ± 2.89 h
- Hypoglycemic Duration (db/db mice; [2]): 56 h
- GLP-1R Ki ratio (human GLP-1R): 0.47
